US20240262826A1, “WILD TYPE KIT INHIBITORS” (Blueprint Medicines Corporation, priority 2022, published 2024)
pIC50: −log10 of the molar value.

What was measured:
[1] = biological target: human P-glycoprotein (P-gp, MDR1) (Homo sapiens (Human), UniProt P08183); assay: MDCK-MDR1 cell monolayer drug transport assay (P-gp efflux ratio); type: in vitro ADME; settings: pH 7.4, MDCK-MDR1 cells; for efflux ratio at 2 h, 1 µM: 1 uM concentration of compound, read-out: Pgp Efflux Ratio, 1 uM
Protocol: The potential for compounds prepared according to the examples to be substrates of P-gp was evaluated using in vitro on Multidrug Resistance Mutation 1-Mardin-Darby Canine Kidney (MDCK-MDR1)) (Mardin-Darby Canine Kidney) cell monolayers overexpressing P-gp grown on permeable supports.
Preparation for cell seeding: MDCK-MDR1 cell culture medium consisting of Dulbecco's Modified Eagle's Medium (DMEM) with high glucose and L-glutamine supplemented with: 10% FBS, 0.1 mg/mL of streptomycin, 0.6 μg/mL of Kanamycin sulfate and 100 units of penicillin was prepared. 50 μL of culture medium was added to each well of the Transwell insert. The Transwell insert was removed from the reservoir and 25 mL of culture medium was added. After incubation at 37° C., 5% CO2 for 1 hour, the plates were ready for cell seeding. The cells were cultivated in T-75 flasks in a cell culture incubator set at 37° C., 5% CO2, 95% relative humidity until they reached 80-90% confluence before detaching and splitting. The cultivated cells were rinsed in T-75 flasks with 5 mL PBS and aspirated off, and then 1.5 mL trypsin/EDTA was added and incubated at 37° C. for approximately 5 to 10 minutes or until the cells detach and float. The trypsin/EDTA was inactived by adding excess serum containing medium. The cell suspension was transferred to a conical tube and the cells pelleted by centrifugation at 120×g for 10 minutes. The cells were resuspended in seeding medium at a density of 1.56×10^6 cells/mL. This cell concentration was used to seed 5.45×10^5 cells/cm^2.
Seeding and feeding of MDCK-MDR1 cells into transwell plates: 50 μL of the above cell suspension was added to each well of a previously prepared Transwell plate and the plate was incubated for 4-8 days, replacing the medium every other day beginning no sooner than 48 hours after initial plating. The medium must be replaced on the day before conducting the experiment, and the procedure for medium changes was carried out as follows. The plate was removed from the incubator and placed in a hood. The medium was aspirated from a reservoir and each Transwell was inserted. 100 μL of culture medium was added to each well of the Transwell inserts and 25 mL of culture medium to reservoir tray. The plate was returned to the incubator.
Assessment of cell monolayer integrity: When the 4-day cultured MDCK-MDR1 cells reached confluence and were differentiated, the medium was removed from the reservoir and Transwell inserts. 100 μL of prewarmed culture medium was added to each transwell insert and 25 mL was added to the reservoir tray. The electrical resistance across the monolayer was measured using a Millicell Epithelial Volt-Ohm measuring system. The electrical resistance for each well was measured and then the plate was returned to the incubator. TEER values were calculated using this formula: TEER measurement (ohms)×Area of membrane (cm2)=TEER value (ohm cm2). Any monolayer with a TEER value <42 ohms·cm2, indicating poor monolayer formation, was discarded.
Performing the drug transport assay: The MDCK-MDR1 plate was removed from the incubator and the monolayer was washed, exchanging the volume two times using pre-warmed HBSS (Hank's balanced salt solution) (10 mM HEPES, pH 7.4). The plate was then incubated at 37° C. for 30 minutes. A 1 μM compound working solution was prepared as follows: Added […] of stock solution (10 mM in DMSO) of test compound and control compounds (Metoprolol, Prazosin and Imatinib) in one 96 well plate, then added 98 μL of DMSO into the same well to obtain 0.2 mM stock solutions (note a stock solution was further diluted 1:10 for eventually making a 0.1 uM compound working solution). Transfered 3 μL of 0.2 mM solution into 597 μL of transport buffer in one 96 well plate to prepare the 1 μM compound working solution. The plate was shaken at 1000 rpm for 10 min.

wild type c-kit = wild type c-kit (Homo sapiens (Human), UniProt P10721); assay: PathScan phospho c-kit (Tyr719) sandwich ELISA in SCF-stimulated M-07e cells (pKIT assay); type: cell-based; settings: ELISA assay (values not marked *)
Method in brief: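 Tyr719-phosphorylated c-kit was measured by colorimetric (TMB) sandwich ELISA in lysates of M-07e cells. Cells were starved 4 h without serum or GM-CSF, dosed 60 min at 37 °C with compound (8 points, duplicate, 0.25% DMSO), and stimulated 10 min with human SCF (500 ng/mL as added). IC50 values came from 4-parameter logistic regression.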

Chain of human P-glycoprotein (P-gp, MDR1) (P08183 whole entry): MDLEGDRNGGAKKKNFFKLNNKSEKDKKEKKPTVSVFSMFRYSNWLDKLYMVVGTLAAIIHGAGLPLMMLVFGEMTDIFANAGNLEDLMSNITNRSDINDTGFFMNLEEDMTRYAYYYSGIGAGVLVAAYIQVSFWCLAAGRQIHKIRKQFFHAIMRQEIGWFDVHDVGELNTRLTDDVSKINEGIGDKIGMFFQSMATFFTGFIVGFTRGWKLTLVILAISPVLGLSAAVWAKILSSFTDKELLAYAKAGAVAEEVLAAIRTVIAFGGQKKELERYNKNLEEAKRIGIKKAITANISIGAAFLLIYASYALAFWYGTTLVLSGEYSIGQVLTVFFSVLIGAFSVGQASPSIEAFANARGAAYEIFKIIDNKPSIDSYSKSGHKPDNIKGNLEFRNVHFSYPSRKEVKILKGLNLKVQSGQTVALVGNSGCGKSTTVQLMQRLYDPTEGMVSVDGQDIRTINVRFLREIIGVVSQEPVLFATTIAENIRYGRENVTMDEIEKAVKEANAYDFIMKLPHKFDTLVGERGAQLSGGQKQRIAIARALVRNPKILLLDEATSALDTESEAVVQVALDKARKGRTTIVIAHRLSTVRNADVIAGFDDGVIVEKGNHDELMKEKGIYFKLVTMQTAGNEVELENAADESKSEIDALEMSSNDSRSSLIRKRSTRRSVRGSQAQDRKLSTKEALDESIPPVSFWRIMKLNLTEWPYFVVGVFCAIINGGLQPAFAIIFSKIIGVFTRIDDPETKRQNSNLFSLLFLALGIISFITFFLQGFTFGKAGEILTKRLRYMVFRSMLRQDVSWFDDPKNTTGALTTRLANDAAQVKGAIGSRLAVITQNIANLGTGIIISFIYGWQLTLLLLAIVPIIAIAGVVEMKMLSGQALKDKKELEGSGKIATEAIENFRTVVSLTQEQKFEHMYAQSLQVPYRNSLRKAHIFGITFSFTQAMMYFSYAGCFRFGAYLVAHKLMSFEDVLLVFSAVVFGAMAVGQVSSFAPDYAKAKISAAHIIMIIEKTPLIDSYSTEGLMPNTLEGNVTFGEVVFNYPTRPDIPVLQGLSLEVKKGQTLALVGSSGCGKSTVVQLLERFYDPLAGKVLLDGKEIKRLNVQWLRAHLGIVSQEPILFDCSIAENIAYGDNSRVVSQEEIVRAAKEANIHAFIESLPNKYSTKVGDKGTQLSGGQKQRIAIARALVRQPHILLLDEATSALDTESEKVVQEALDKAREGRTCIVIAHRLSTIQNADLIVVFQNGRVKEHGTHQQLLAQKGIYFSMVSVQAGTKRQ
Chain of wild type c-kit (P10721 26-976): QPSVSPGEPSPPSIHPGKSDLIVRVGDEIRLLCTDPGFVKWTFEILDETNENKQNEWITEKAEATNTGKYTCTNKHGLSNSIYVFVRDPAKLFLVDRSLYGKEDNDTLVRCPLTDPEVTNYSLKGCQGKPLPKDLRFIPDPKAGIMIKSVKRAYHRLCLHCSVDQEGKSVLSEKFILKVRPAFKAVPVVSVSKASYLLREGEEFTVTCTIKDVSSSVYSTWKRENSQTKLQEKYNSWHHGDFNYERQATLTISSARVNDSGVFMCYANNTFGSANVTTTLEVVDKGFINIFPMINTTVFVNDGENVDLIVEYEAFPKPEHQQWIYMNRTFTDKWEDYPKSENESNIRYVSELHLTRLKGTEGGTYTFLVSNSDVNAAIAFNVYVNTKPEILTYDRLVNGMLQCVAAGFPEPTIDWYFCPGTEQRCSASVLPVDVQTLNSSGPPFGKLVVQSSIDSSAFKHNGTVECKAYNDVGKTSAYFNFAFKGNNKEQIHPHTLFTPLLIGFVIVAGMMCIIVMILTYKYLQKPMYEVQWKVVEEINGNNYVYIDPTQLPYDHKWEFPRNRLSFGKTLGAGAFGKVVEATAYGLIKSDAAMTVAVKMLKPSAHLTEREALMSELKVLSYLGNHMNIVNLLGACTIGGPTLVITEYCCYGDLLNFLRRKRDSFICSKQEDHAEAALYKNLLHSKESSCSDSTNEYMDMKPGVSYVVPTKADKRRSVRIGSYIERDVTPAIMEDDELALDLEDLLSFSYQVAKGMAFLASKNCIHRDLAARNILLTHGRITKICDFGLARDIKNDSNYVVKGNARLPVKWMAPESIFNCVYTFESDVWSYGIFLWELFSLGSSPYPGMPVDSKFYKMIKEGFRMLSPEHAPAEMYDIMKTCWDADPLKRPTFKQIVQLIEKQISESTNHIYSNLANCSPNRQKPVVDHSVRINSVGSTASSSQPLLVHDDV

Row | efflux ratio at 2 h, 1 µM [1] | pIC50 (wild type c-kit) | efflux ratio at 2 h, 0.1 µM ([1]; 0.1 uM concentration of compound (denoted by **), read-out: Pgp Efflux Ratio) | Compound
1 | 7 | 9.05 |  | Cc1nn(CC2(O)CCOCC2)cc1-c1ccn2ncc(C(=O)Nc3cc(-n4nnc([C@H]5C[C@@H]5F)n4)ccc3Cl)c2c1 (single isomer, unassigned) [Example 272, N-(2-chloro-5-(5-((1R,2S)-2-fluorocyclopropyl)-2H-tetrazol-2-yl)phenyl)-5-(1-((4-hydroxytetrahydro-2H-pyran-4-yl)methyl)-3-methyl-1H-pyrazol-4-yl)pyrazolo[1,5-a]pyridine-3-carboxamide or N-(2-chloro-5-(5-((1S,2R)-2-fluorocyclopropyl)-2H-tetrazol-2-yl)phenyl)-5-(1-((4-hydroxytetrahydro-2H-pyran-4-yl)methyl)-3-methyl-1H-pyrazol-4-yl)pyrazolo[1,5-a]pyridine-3-carboxamide]
2 | 13.5 | 10.00 |  | COC[C@@H](O)Cn1cc(-c2ccn3ncc(C(=O)Nc4cc(-c5nnn(C6CC6)n5)ccc4C)c3c2)c(C2CC2)n1 [Example 243, (S)-5-(3-cyclopropyl-1-(2-hydroxy-3-methoxypropyl)-1H-pyrazol-4-yl)-N-(5-(2-cyclopropyl-2H-tetrazol-5-yl)-2-methylphenyl)pyrazolo[1,5-a]pyridine-3-carboxamide]
3 | 116 | 9.10 |  | Cc1nnn(-c2ccc(C)c(NC(=O)c3cnn4ccc(-c5cn(C[C@H]6CNCCO6)nc5C)cc34)c2)n1 [Example 230, (R)-5-(3-methyl-1-(morpholin-2-ylmethyl)-1H-pyrazol-4-yl)-N-(2-methyl-5-(5-methyl-2H-tetrazol-2-yl)phenyl)pyrazolo[1,5-a]pyridine-3-carboxamide]
4 | 12.4 | 8.74 |  | Cc1ccc(-c2nnn(C3CC3)n2)cc1NC(=O)c1cnn2ccc(-c3cnn(CCCN4CCOCC4)c3)cc12 [Example 220, N-(5-(2-cyclopropyl-2H-tetrazol-5-yl)-2-methylphenyl)-5-(1-(3-morpholinopropyl)-1H-pyrazol-4-yl)pyrazolo[1,5-a]pyridine-3-carboxamide]
5 |  | 9.70 | 6.3 | Cc1cc(F)c(-c2nnn(C3CC3)n2)cc1NC(=O)c1cnn2ccc(-c3cn(CC(C)(C)O)nc3C3CC3)cc12 [Example 241, 5-(3-cyclopropyl-1-(2-hydroxy-2-methylpropyl)-1H-pyrazol-4-yl)-N-(5-(2-cyclopropyl-2H-tetrazol-5-yl)-4-fluoro-2-methylphenyl)pyrazolo[1,5-a]pyridine-3-carboxamide]
6 |  | 9.22 |  | COC[C@H](O)Cn1cc(-c2ccn3ncc(C(=O)Nc4cc(-c5nnn(C6CC6)n5)c(F)cc4Cl)c3c2)c(C)n1 [Example 279, (R)—N-(2-chloro-5-(2-cyclopropyl-2H-tetrazol-5-yl)-4-fluorophenyl)-5-(1-(2-hydroxy-3-methoxypropyl)-3-methyl-1H-pyrazol-4-yl)pyrazolo[1,5-a]pyridine-3-carboxamide]

The next lines start with the molecule.

Row | Compound | efflux ratio at 2 h, 1 µM [1] | pIC50 (wild type c-kit) | efflux ratio at 2 h, 0.1 µM ([1]; 0.1 uM concentration of compound (denoted by **), read-out: Pgp Efflux Ratio)
7 | Cc1ccc(-c2nnn([C@H]3C[C@@H](C(F)(F)F)C3)n2)cc1NC(=O)c1cnn2ccc(N3CC(C)(O)C3)cc12 [Example 107, 5-(3-hydroxy-3-methylazetidin-1-yl)-N-(2-methyl-5-(2-((1s,3s)-3-(trifluoromethyl)cyclobutyl)-2H-tetrazol-5-yl)phenyl)pyrazolo[1,5-a]pyridine-3-carboxamide] | 28.9 | 8.26 | 
8 | COCCOc1ccc2c(C(=O)Nc3cc(-c4nnn(C5CN(C(=O)OC)C5)n4)ccc3C)cnn2c1 [Example 143, methyl 3-(5-(3-(6-(2-methoxyethoxy)pyrazolo[1,5-a]pyridine-3-carboxamido)-4-methylphenyl)-2H-tetrazol-2-yl)azetidine-1-carboxylate] | 4 | 7.98 | 
9 | COCCNc1ccn2ncc(C(=O)Nc3cc(-c4nnn(C5CC(F)C5)n4)ccc3C)c2c1 (centres unmarked) [Example 151, N-(5-(2-(3-fluorocyclobutyl)-2H-tetrazol-5-yl)-2-methylphenyl)-5-((2-methoxyethyl)amino)pyrazolo[1,5-a]pyridine-3-carboxamide] | 4.8 | 8.39 | 
10 | COCCNc1ccc2c(C(=O)Nc3cc(-c4nnn(C5CN(C(=O)OC)C5)n4)ccc3Cl)cnn2c1 [Example 157, methyl 3-(5-(4-chloro-3-(6-((2-methoxyethyl)amino)pyrazolo[1,5-a]pyridine-3-carboxamido)phenyl)-2H-tetrazol-2-yl)azetidine-1-carboxylate] | 5.9 | 8.19 | 
11 | COC(=O)N1CC(c2cnn(-c3ccc(C)c(NC(=O)c4cnn5ccc(N6CCOCC6)cc45)c3)n2)C1 [Example 80, methyl 3-(2-(4-methyl-3-(5-morpholinopyrazolo[1,5-a]pyridine-3-carboxamido)phenyl)-2H-1,2,3-triazol-4-yl)azetidine-1-carboxylate] | 4 | 8.04 | 
12 | COC(=O)N1CC(n2nnc(-c3ccc(C)c(NC(=O)c4cnn5ccc(NCC(C)(C)OC)cc45)c3)n2)C1 [Example 96, methyl 3-(5-(3-(5-((2-methoxy-2-methylpropyl)amino)pyrazolo[1,5-a]pyridine-3-carboxamido)-4-methylphenyl)-2H-tetrazol-2-yl)azetidine-1-carboxylate] | 9.5 | 7.43 | 
13 | Cc1cnn(-c2ccc(C)c(NC(=O)c3cnn4ccc(-c5cnn(C[C@H]6CNCCO6)c5)cc34)c2)n1 [Example 205, (R)—N-(2-methyl-5-(4-methyl-2H-1,2,3-triazol-2-yl)phenyl)-5-(1-(morpholin-2-ylmethyl)-1H-pyrazol-4-yl)pyrazolo[1,5-a]pyridine-3-carboxamide] | 33.1 |  | 
14 | Cc1ccc(-c2nnn(CCOCC(F)(F)F)n2)cc1NC(=O)c1cnn2ccc(-c3cn[nH]c3)cc12 [Example 197, N-(2-methyl-5-(2-(2-(2,2,2-trifluoroethoxy)ethyl)-2H-tetrazol-5-yl)phenyl)-5-(1H-pyrazol-4-yl)pyrazolo[1,5-a]pyridine-3-carboxamide] | 41 |  | 
15 | Cc1nnn(-c2ccc(Cl)c(NC(=O)c3cnn4ccc(-c5cnn(CC(C)(C)O)c5)cc34)c2)n1 [Example 212, N-(2-chloro-5-(5-methyl-2H-tetrazol-2-yl)phenyl)-5-(1-(2-hydroxy-2-methylpropyl)-1H-pyrazol-4-yl)pyrazolo[1,5-a]pyridine-3-carboxamide] |  | 8.25 | 
16 | Cc1ccc(-c2nnn(C3CN(S(=O)(=O)C(C)C)C3)n2)cc1NC(=O)c1cnn2ccccc12 [Example 177, N-(5-(2-(1-(isopropylsulfonyl)azetidin-3-yl)-2H-tetrazol-5-yl)-2-methylphenyl)pyrazolo[1,5-a]pyridine-3-carboxamide] |  | 8.06 | 
17 | CCn1nnc(-c2ccc(C)c(NC(=O)c3cnn4ccccc34)c2)n1 [Example 14, N-(5-(2-ethyl-2H-tetrazol-5-yl)-2-methylphenyl)pyrazolo[1,5-a]pyridine-3-carboxamide] |  | 7.54 | 
18 | CCCS(=O)(=O)N1CC(n2nnc(-c3ccc(C)c(NC(=O)c4cnn5ccccc45)c3)n2)C1 [Example 174] |  | 7.55 | 
